# Patent US9827221B2, “Crystalline solids of a metAP-2 inhibitor and methods of making and using same” (Zafgen, Inc., priority 2010, dated 2017)
# Columns and labels:
# Format in all cases: physicochemical
# [1] = Solubility in diisopropyl ether; conditions: organic solvent or mixture
# [2] = Solubility in solvent (e.g. aqueous solution that may include a buffer) with pH greater or equal to about 8.0; conditions: pH 8, aqueous buffer, ca. 20° C.
# [3] = Stability of the crystalline form to grinding (mortar and pestle; PLM, XRPD); conditions: ca. 500 mg ground with mortar and pestle for approximately 5 minutes
# Protocol: A sample (ca. 500 mg) from the scale-up of crystalline compound as in Example 2 was placed onto a mortar (Agate material, H: 35 mm, L: 77 mm). The sample was then ground using a pestle (length: 80 mm; grinding diameter: 17 mm) for approximately 5 minutes. Throughout the grinding procedure, the sample was allowed to stand for ca. 10 seconds intermittently to ensure that significant heat was not generated. PLM indicated birefrigent material with particle sizes measuring between about 20 μm and 80 μm in length.
# [4] = Solid-form stability of Form C on storage (conversion to Form A)
# Protocol: A sample of amorphous material of 6-O-(4-dimethylaminoethoxy)cinnamoyl fumagillol was exposed to vapors of neat trichloroethane at ambient temperature. The amorphous form readily deliquesced. The deliquesced sample was stored in a cold environment and evaporated to dryness using a Genevac centrifuge evaporator. The sample was then sealed, submerged in dry ice for ca. 15 minutes and stored in a freezer ([…]). The sample remained glassy during storage in the freezer (−20° C., 9 days), and was then stored at 5° C. (9 days), resulting in crystalline, Form C (see FIG. 13 for micrograph). A portion of the Form C sample was left at ambient temperature.
solubility ([1]; 50° C.) [mg/mL],solubility ([1]; room temperature (ca. 20° C.)) [mg/mL],solubility [2] [mg/mL],crystallinity after grinding (XRPD) [3],relative stability of the crystalline forms ([4]; Form C relative to Form A),solid form conversion on storage ([4]; sample left at ambient temperature),solid form conversion on storage ([4]; sample stored at 5° C.),Compound
~102,~25,< 0.2,remained highly crystalline,–,–,–,"CO[C@@H]1[C@H](OC(=O)/C=C/c2ccc(OCCN(C)C)cc2)CCC2(CO2)[C@H]1C1(C)OC1CC=C(C)C (stereo partly shown) [Form A, 6-O-(4-dimethylaminoethoxy)cinnamoyl fumagillol]"
–,–,–,–,metastable relative to Form A,converted to Form A after three days,converted to Form A after three days,"CO[C@@H]1[C@H](OC(=O)/C=C/c2ccc(OCCN(C)C)cc2)CCC2(CO2)[C@H]1C1(C)OC1CC=C(C)C (stereo partly shown) [Form C, 6-O-(4-dimethylaminoethoxy)cinnamoyl fumagillol]"
